Results from the supplement of paper PMC11208160.

Assay: recombinant UMI read abundance after kanamycin selection (control-corrected) (log10(CPM+1)); higher = more efficient recombination; extreme values may be limits of the assay; sequences stand for … in AGTGCAGAGAAAATCGGCCAGTTTTCTCTGCCTGCAGTCCGCATGCCGTGGGACCCCTTGGGTTCTAACCTGTTGCCTAGATTTATGCAGCGGACTGCCTTTCTCCCAAAGTGATAAACCGG…AGGTTGGTTTCACT; site = the 11-nt donor
Method in brief: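 Each donor and donor-binding-loop pair was tracked by a 12-nt UMI on a plasmid carrying a promoterless kanamycin gene. With a second plasmid supplying a fixed target and T7-inducible IS621 bridge recombinase, the pool was plated in Escherichia coli on IPTG (0.07 mM) plus kanamycin or unselected. Sequencing of recombinant UMIs across the donor–target junction gave counts expressed as log10(CPM+1) after replicate averaging and control-derived scaling.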
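Note: IS621 bridge recombinase in Escherichia coli cells against a fixed T5 target plasmid.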

Sequence	recombinant UMI read abundance (log10)
GGTACGTCATGGACCGGTTTTCCCGGTAATCCGTATTTGTA (site GGTACGTCTAA)	0.0713
GGTACGTCATGGACCGGTTTTCCCGGTAATCCGTATTTGTA (site GGTACGTCTCA)	0.00737
GGTACGTCATGGACCGGTTTTCCCGGTAATCCGTATTTGTA (site GGTACGTCTGA)	0
GGTACGTCATGGACCGGTTTTCCCGGTAATCCGTATTTGTA (site GGTACGTCTTA)	0.651
GGTACTGCATGGACCGGTTTTCCCGGTAATCCGTATTTGCC (site GATACTGCTGG)	0
GGTACTGCATGGACCGGTTTTCCCGGTAATCCGTATTTGCC (site GCTACTGCTGG)	0.662
GGTACTGCATGGACCGGTTTTCCCGGTAATCCGTATTTGCC (site GGTACTGCTGG)	1.58
GGTACTGCATGGACCGGTTTTCCCGGTAATCCGTATTTGCC (site GTTACTGCTGG)	0
GGTATGTCATGGACCGGTTTTCCCGGTAATCCGTATTTGTT (site GGTAAGTCTAA)	0.00575
GGTATGTCATGGACCGGTTTTCCCGGTAATCCGTATTTGTT (site GGTACGTCTAA)	0.0321
GGTATGTCATGGACCGGTTTTCCCGGTAATCCGTATTTGTT (site GGTAGGTCTAA)	0.00327
GGTATGTCATGGACCGGTTTTCCCGGTAATCCGTATTTGTT (site GGTATGTCTAA)	0.586
GGTATTACATGGACCGGTTTTCCCGGTAATCCGTATTTGAG (site GGTATTACTCT)	0
GGTCACACATGGACCGGTTTTCCCGGTAATCCGTATTTGTC (site GGTCACACTGA)	2.3
GGTCACCCATGGACCGGTTTTCCCGGTAATCCGTATTTGTT (site GGACACCCTAA)	0
GGTCACCCATGGACCGGTTTTCCCGGTAATCCGTATTTGTT (site GGCCACCCTAA)	0.0117
GGTCACCCATGGACCGGTTTTCCCGGTAATCCGTATTTGTT (site GGGCACCCTAA)	0.0126
GGTCACCCATGGACCGGTTTTCCCGGTAATCCGTATTTGTT (site GGTCACCCTAA)	0.00231
GGTCAGCCATGGACCGGTTTTCCCGGTAATCCGTATTTGGG (site GGTCAGCCTCC)	0.00726
GGTCCAACATGGACCGGTTTTCCCGGTAATCCGTATTTGCA (site GGTCCAACTTA)	0.0117
GGTCCAACATGGACCGGTTTTCCCGGTAATCCGTATTTGCA (site GGTCCAACTTC)	0.107
GGTCCAACATGGACCGGTTTTCCCGGTAATCCGTATTTGCA (site GGTCCAACTTG)	0
GGTCCAACATGGACCGGTTTTCCCGGTAATCCGTATTTGCA (site GGTCCAACTTT)	0.0134

Sequence	recombinant UMI read abundance (log10)
GGTCCAACATGGACCGGTTTTCCCGGTAATCCGTATTTGTA (site AGTCCAACTTA)	0.0127
GGTCCAACATGGACCGGTTTTCCCGGTAATCCGTATTTGTA (site CGTCCAACTTA)	0
GGTCCAACATGGACCGGTTTTCCCGGTAATCCGTATTTGTA (site GATCCAACTTA)	0.0069
GGTCCAACATGGACCGGTTTTCCCGGTAATCCGTATTTGTA (site GCTCCAACTTA)	0.00409
GGTCCAACATGGACCGGTTTTCCCGGTAATCCGTATTTGTA (site GGACCAACTTA)	0.00547
GGTCCAACATGGACCGGTTTTCCCGGTAATCCGTATTTGTA (site GGCCCAACTTA)	0.0162
GGTCCAACATGGACCGGTTTTCCCGGTAATCCGTATTTGTA (site GGGCCAACTTA)	0.00345
GGTCCAACATGGACCGGTTTTCCCGGTAATCCGTATTTGTA (site GGTACAACTTA)	0.00331
GGTCCAACATGGACCGGTTTTCCCGGTAATCCGTATTTGTA (site GGTCAAACTTA)	0.0208
GGTCCAACATGGACCGGTTTTCCCGGTAATCCGTATTTGTA (site GGTCCAACTAA)	0.0196
GGTCCAACATGGACCGGTTTTCCCGGTAATCCGTATTTGTA (site GGTCCAACTCA)	0.0175
GGTCCAACATGGACCGGTTTTCCCGGTAATCCGTATTTGTA (site GGTCCAACTGA)	0
GGTCCAACATGGACCGGTTTTCCCGGTAATCCGTATTTGTA (site GGTCCAACTTA)	0.431
GGTCCAACATGGACCGGTTTTCCCGGTAATCCGTATTTGTA (site GGTCCAACTTC)	0.0212
GGTCCAACATGGACCGGTTTTCCCGGTAATCCGTATTTGTA (site GGTCCAACTTG)	0.016
GGTCCAACATGGACCGGTTTTCCCGGTAATCCGTATTTGTA (site GGTCCAACTTT)	0.0114
GGTCCAACATGGACCGGTTTTCCCGGTAATCCGTATTTGTA (site GGTCCACCTTA)	0.011
GGTCCAACATGGACCGGTTTTCCCGGTAATCCGTATTTGTA (site GGTCCAGCTTA)	0.015
GGTCCAACATGGACCGGTTTTCCCGGTAATCCGTATTTGTA (site GGTCCATCTTA)	0.583
GGTCCAACATGGACCGGTTTTCCCGGTAATCCGTATTTGTA (site GGTCCCACTTA)	0.00585
GGTCCAACATGGACCGGTTTTCCCGGTAATCCGTATTTGTA (site GGTCCGACTTA)	0.0188
GGTCCAACATGGACCGGTTTTCCCGGTAATCCGTATTTGTA (site GGTCCTACTTA)	0.00929
GGTCCAACATGGACCGGTTTTCCCGGTAATCCGTATTTGTA (site GGTCGAACTTA)	0.0172

Sequence	recombinant UMI read abundance (log10)
GGTCCAACATGGACCGGTTTTCCCGGTAATCCGTATTTGTA (site GGTCTAACTTA)	0.00385
GGTCCAACATGGACCGGTTTTCCCGGTAATCCGTATTTGTA (site GGTGCAACTTA)	0.0122
GGTCCAACATGGACCGGTTTTCCCGGTAATCCGTATTTGTA (site GGTTCAACTTA)	0.0111
GGTCCAACATGGACCGGTTTTCCCGGTAATCCGTATTTGTA (site GTTCCAACTTA)	0.0101
GGTCCAACATGGACCGGTTTTCCCGGTAATCCGTATTTGTA (site TGTCCAACTTA)	0.00249
GGTCCAACATGGACCGGTTTTCCCGGTAATCCGTATTTGTG (site GGTCCAACTAA)	0.00832
GGTCCAACATGGACCGGTTTTCCCGGTAATCCGTATTTGTG (site GGTCCAACTCA)	0.00564
GGTCCAACATGGACCGGTTTTCCCGGTAATCCGTATTTGTG (site GGTCCAACTGA)	0
GGTCCAACATGGACCGGTTTTCCCGGTAATCCGTATTTGTG (site GGTCCAACTTA)	0.00906
GGTCCCTCATGGACCGGTTTTCCCGGTAATCCGTATTTGTG (site GGTCCCTCTCA)	0.413
GGTGAACCATGGACCGGTTTTCCCGGTAATCCGTATTTGGG (site GGTGAACCTCC)	0
GGTGAAGCATGGACCGGTTTTCCCGGTAATCCGTATTTGAG (site GGTGAAGCTCT)	1.82
GGTGACTCATGGACCGGTTTTCCCGGTAATCCGTATTTGAC (site GGTGACTCTGT)	2.47
GGTGAGGCATGGACCGGTTTTCCCGGTAATCCGTATTTGGT (site GGTGAGGCTAC)	1.1
GGTGAGTCATGGACCGGTTTTCCCGGTAATCCGTATTTGGC (site GGTGAGTCTGC)	2.23
GGTGCAACATGGACCGGTTTTCCCGGTAATCCGTATTTGTA (site GGTACAACTTA)	0.01
GGTGCAACATGGACCGGTTTTCCCGGTAATCCGTATTTGTA (site GGTCCAACTTA)	0.00521
GGTGCAACATGGACCGGTTTTCCCGGTAATCCGTATTTGTA (site GGTGCAACTTA)	0.221
GGTGCAACATGGACCGGTTTTCCCGGTAATCCGTATTTGTA (site GGTTCAACTTA)	0.00709
GGTGCGTCATGGACCGGTTTTCCCGGTAATCCGTATTTGGA (site GGTGCGTCTTC)	0.59
GGTGTTCCATGGACCGGTTTTCCCGGTAATCCGTATTTGGT (site GATGTTCCTAC)	0.0226
GGTGTTCCATGGACCGGTTTTCCCGGTAATCCGTATTTGGT (site GCTGTTCCTAC)	0.0204
